Results taken from PubChem BioAssay AID330 (DTP/NCI, 2004).
Values joined by “and” are separate entries in the source; they are usually repeats but may differ in a detail not shown here. Identical values can stand only once. Toxic doses and inconclusive results are not listed.

Test system: P388 leukemia ip, CD2F1 mice, survival T/C
Experiment: NCI In Vivo Anticancer Drug Screen. Data for tumor model P388 Leukemia (intraperitoneal) in CD2F1 (CDF1) mice
Settings: endpoint: median survival time, higher = longer survival
Summary of the method: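 Mice carrying the transplanted tumor received test compound or vehicle. Survival was recorded in each group, and the value is the treated-group measurement divided by that of the vehicle-treated control group.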

[1] = dose: 60.0 mg/kg/injection, schedule: Q01DX005 (ip), vehicle: saline with Tween-80
[2] = dose: 120.0 mg/kg/injection, schedule: Q01DX005 (ip), vehicle: saline with Tween-80
[3] = dose: 240.0 mg/kg/injection, schedule: Q01DX005 (ip), vehicle: saline with Tween-80
[4] = dose: 50.0 mg/kg/injection, schedule: Q01DX005 (ip), vehicle: Klucel (hydroxypropylcellulose) (HPC)
[5] = dose: 100.0 mg/kg/injection, schedule: Q01DX005 (ip), vehicle: Klucel (hydroxypropylcellulose) (HPC)
[6] = dose: 200.0 mg/kg/injection, schedule: Q01DX005 (ip), vehicle: Klucel (hydroxypropylcellulose) (HPC)
[7] = dose: 25.0 mg/kg/injection, schedule: Q01DX009 (ip), vehicle: saline with Tween-80
[8] = dose: 50.0 mg/kg/injection, schedule: Q01DX009 (ip), vehicle: saline with Tween-80
[9] = dose: 12.5 mg/kg/injection, schedule: Q01DX009 (ip), vehicle: Klucel (hydroxypropylcellulose) (HPC)
[10] = dose: 25.0 mg/kg/injection, schedule: Q01DX009 (ip), vehicle: Klucel (hydroxypropylcellulose) (HPC)
[11] = dose: 50.0 mg/kg/injection, schedule: Q01DX009 (ip), vehicle: Klucel (hydroxypropylcellulose) (HPC)
[12] = dose: 100.0 mg/kg/injection, schedule: Q01DX009 (ip), vehicle: Klucel (hydroxypropylcellulose) (HPC)

Q: Which results are given for `CCOC(=O)c1c(C)[nH]oc1=O`?
A: T/C (dose: 25.0 mg/kg/injection, schedule: Q01DX009 (ip), vehicle: saline sonified): 109 % of control; T/C (dose: 50.0 mg/kg/injection, schedule: Q01DX009 (ip), vehicle: saline sonified): 100 % of control; T/C (dose: 100.0 mg/kg/injection, schedule: Q01DX009 (ip), vehicle: saline sonified): 100 % of control

Q: Which results are given for `CCCCCC(Nc1nncs1)Nc1nncs1`?
A: T/C [1]: 94 % of control; T/C [2]: 96 % of control; T/C [3]: 105 % of control

Q: Which T/C [4] does the source give for `Cc1nc2ncn(-c3ccccc3)c2c(=O)n1-c1cccnc1` here?
A: Its T/C is 105 % of control.

Q: What about the T/C [5] of the same molecule?
A: The T/C was 110 % of control.

Q: And the T/C [6]?
A: Its T/C is 110 % of control.

Q: Which results are given for `CC1(C)CC(OP(=O)(N(CCCl)CCCl)N2CC2)CC(C)(C)N1O` (stereo not drawn)?
A: T/C (dose: 13.0 mg/kg/injection, schedule: Q01DX009 (ip), vehicle: saline + alcohol): 102 % of control; T/C (dose: 25.0 mg/kg/injection, schedule: Q01DX009 (ip), vehicle: saline + alcohol): 102 % of control; T/C (dose: 50.0 mg/kg/injection, schedule: Q01DX009 (ip), vehicle: saline + alcohol): 114 % of control

Q: What does the source list for `COc1cc(C=C2C(=O)C=CC2=O)cc(OC)c1OC`?
A: T/C (dose: 1.25 mg/kg/injection, schedule: Q04DX002 (ip), vehicle: saline with Tween-80): 107 % of control; T/C (dose: 2.5 mg/kg/injection, schedule: Q04DX002 (ip), vehicle: saline with Tween-80): 99 % of control; T/C (dose: 5.0 mg/kg/injection, schedule: Q04DX002 (ip), vehicle: saline with Tween-80): 104 % of control

Q: Which results are given for `O=c1[nH]c(=S)c2c(n1CCCO)CCC2`?
A: T/C [4]: 97 % of control; T/C [5]: 101 % of control; T/C [6]: 105 % of control

Q: How did the T/C (dose: 50.0 mg/kg/injection, schedule: Q01DX005 (ip), vehicle: saline with Tween-80) turn out when `CSC1=Nc2cc3c(cc2C(=O)N2C[C@H](O)CC12)OCO3` (stereo partly drawn) was run?
A: Its T/C is 108 % of control.

Q: What about the T/C (dose: 100.0 mg/kg/injection, schedule: Q01DX005 (ip), vehicle: saline with Tween-80) of the same molecule?
A: The T/C was 102 % of control.

Q: What about the T/C (dose: 200.0 mg/kg/injection, schedule: Q01DX005 (ip), vehicle: saline with Tween-80) of the same molecule?
A: Its T/C is 94 % of control.

Q: What does the source list for `CC1=NNC(=S)NCCCN2CCN(CCCNC(=S)NN=C(C)C=NNC(=S)NCCCN3CCN(CCCNC(=S)NN=C1)CC3)CC2`?
A: T/C (dose: 50.0 mg/kg/injection, schedule: Q01DX005 (ip), vehicle: suspension in saline): 106 % of control; T/C (dose: 100.0 mg/kg/injection, schedule: Q01DX005 (ip), vehicle: suspension in saline): 113 % of control; T/C (dose: 200.0 mg/kg/injection, schedule: Q01DX005 (ip), vehicle: suspension in saline): 106 % of control

Q: How did the T/C [1] turn out when `C=CCC1(C)C=C(C)C(=O)C(C)=C1` was run?
A: Its T/C is 105 % of control.

Q: And the T/C [2]?
A: Its T/C is 102 % of control.

Q: What about the T/C [3] of the same molecule?
A: The T/C was 104 % of control.

Q: Which results are given for `C[N+]1(C)CCC(=O)CC1`?
A: T/C [7]: 109 % of control; T/C [8]: 100 % of control; T/C (dose: 100.0 mg/kg/injection, schedule: Q01DX009 (ip), vehicle: saline with Tween-80): 104 % of control

Q: For `CC12CCC(c3sc(N)c(C#N)c31)C2(C)C` (stereo not drawn), which T/C [9] is on record?
A: The T/C was 114 % of control.

Q: And the T/C [10]?
A: The T/C was 104 % of control.

Q: What about the T/C [11] of the same molecule?
A: The T/C was 104 % of control.

Q: Which results are given for `O=C(NNc1ccc(F)cc1)C12CC3CC(CC(C3)C1)C2`?
A: T/C (dose: 12.5 mg/kg/injection, schedule: Q01DX009 (ip), vehicle: saline with Tween-80): 103 % of control; T/C [7]: 99 % of control; T/C [8]: 87 % of control

Q: Which T/C (dose: 6.25 mg/kg/injection, schedule: Q01DX009 (ip), vehicle: saline) does the source give for `CC(C)=CCC(C)/C(=N\[N+](C)(C)C)c1ccccc1` (stereo not drawn) here?
A: The T/C was 94 % of control.

Q: What about the T/C (dose: 12.5 mg/kg/injection, schedule: Q01DX009 (ip), vehicle: saline) of the same molecule?
A: Its T/C is 99 % of control.

Q: And the T/C (dose: 25.0 mg/kg/injection, schedule: Q01DX009 (ip), vehicle: saline)?
A: Its T/C is 101 % of control and 116 % of control.

Q: With `CS(=O)(=O)CC1=NC(=N)N=C1CS(C)(=O)=O` as the molecule, how does the T/C (dose: 60.0 mg/kg/injection, schedule: Q01DX005 (ip), vehicle: saline) read?
A: The T/C was 100 % of control.

Q: And the T/C (dose: 120.0 mg/kg/injection, schedule: Q01DX005 (ip), vehicle: saline)?
A: Its T/C is 110 % of control.

Q: What about the T/C (dose: 240.0 mg/kg/injection, schedule: Q01DX005 (ip), vehicle: saline) of the same molecule?
A: The T/C was 96 % of control.

Q: How did the T/C [1] turn out when `CN1c2ccc(C3N(C(=O)C(F)(F)F)C=CN3C(=O)C(F)(F)F)cc2Sc2cc(C3N(C(=O)C(F)(F)F)C=CN3C(=O)C(F)(F)F)ccc21` was run?
A: The T/C was 91 % of control.

Q: And the T/C [2]?
A: The T/C was 89 % of control.

Q: What about the T/C [3] of the same molecule?
A: The T/C was 91 % of control.

Q: How did the T/C (dose: 6.25 mg/kg/injection, schedule: Q01DX009 (ip), vehicle: Klucel (hydroxypropylcellulose) (HPC)) turn out when `O=C1NC(=O)/C(=C\c2ccco2)S1` was run?
A: Its T/C is 98 % of control.

Q: What about the T/C [9] of the same molecule?
A: The T/C was 89 % of control.

Q: And the T/C [10]?
A: The T/C was 94 % of control.

Q: How did the T/C (dose: 12.5 mg/kg/injection, schedule: Q04DX003 (ip), vehicle: Klucel (hydroxypropylcellulose) (HPC)) turn out when `CC([Se])=Nc1ccc(Br)cc1` was run?
A: The T/C was 100 % of control.

Q: And the T/C (dose: 25.0 mg/kg/injection, schedule: Q04DX003 (ip), vehicle: Klucel (hydroxypropylcellulose) (HPC))?
A: Its T/C is 100 % of control.

Q: With `CC(C)NCC(O)COc1ccc(OCc2ccccc2)c(OCc2ccccc2)c1` (stereo not drawn) as the molecule, how does the T/C [8] read?
A: The T/C was 100 % of control.

Q: Which results are given for `Clc1ccc(N=NN2CCc3ccccc3C2)cc1`?
A: T/C [11]: 99 % of control; T/C [12]: 99 % of control; T/C (dose: 200.0 mg/kg/injection, schedule: Q01DX009 (ip), vehicle: Klucel (hydroxypropylcellulose) (HPC)): 93 % of control

Q: For `COC(=O)CC1(C(=O)OC)C2=C(CCC2)N2CCCC21` (stereo not drawn), which T/C [9] is on record?
A: Its T/C is 101 % of control.

Q: And the T/C [10]?
A: The T/C was 103 % of control.

Q: And the T/C [11]?
A: Its T/C is 97 % of control.

Q: And the T/C [12]?
A: The T/C was 93 % of control.
